# Where a name gives a salt, the structure may show the parent alone.
# Target: S1P1 receptor (Homo sapiens, UniProt P21453)
# Test: 35S-GTPγS binding, membranes from CHO cells expressing S1P1
# Format: biochemical
# Conditions: CHO cell membranes expressing S1P1
# Summary of the method: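 Membranes (1–10 μg) from CHO cells expressing the receptor were incubated with compound in 20 mM HEPES pH 7.4, 10 mM MgCl2, 140 mM NaCl, 1.7 μM GDP, saponin and 0.2% BSA. [35S]GTPγS (added at 1.5 nM) was then bound for 60 min at 30 °C. Membrane-bound radioactivity, averaged over triplicates, is expressed relative to S1P activation (n=2).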
# Sequence of S1P1 receptor (P21453 whole entry): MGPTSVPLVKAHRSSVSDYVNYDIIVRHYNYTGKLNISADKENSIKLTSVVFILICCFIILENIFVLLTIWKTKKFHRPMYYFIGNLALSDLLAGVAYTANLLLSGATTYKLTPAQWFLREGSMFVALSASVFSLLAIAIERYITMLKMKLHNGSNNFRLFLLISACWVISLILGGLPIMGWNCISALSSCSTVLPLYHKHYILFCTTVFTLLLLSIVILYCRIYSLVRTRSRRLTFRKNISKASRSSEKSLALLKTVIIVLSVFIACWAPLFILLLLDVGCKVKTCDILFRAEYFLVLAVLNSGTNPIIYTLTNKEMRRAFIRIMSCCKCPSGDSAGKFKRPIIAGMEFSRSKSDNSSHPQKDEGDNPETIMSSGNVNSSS
row,EC50,SMILES
1,18 nM,"O=C1Cc2cc(-c3noc(-c4nnn(-c5ccccc5F)c4-c4ccncc4)n3)ccc2N1 [Example 106, 5-{5-[1-(2-fluorophenyl)-5-pyridin-4-yl-1H-1,2,3-triazol-4-yl]-1,2,4-oxadiazol-3-yl}-1,3-dihydro-2H-indol-2-one]"
2,240 nM,"COCc1c(-c2nc(-c3ccc(Cn4cccn4)cc3)no2)nnn1-c1ccccc1F [Example 173, 5-[1-(2-fluorophenyl)-5-(methoxymethyl)-1H-1,2,3-triazol-4-yl]-3-[4-(1H-pyrazol-1-ylmethyl)phenyl]-1,2,4-oxadiazole]"
3,360 nM,"CS(=O)(=O)NC1CCN(Cc2ccc(-c3noc(-c4nnn(-c5ccccc5F)c4-c4ccncc4)n3)cc2)CC1 [Example 146, N-[1-(4-{5-[1-(2-fluorophenyl)-5-pyridin-4-yl-1H-1,2,3-triazol-4-yl]-1,2,4-oxadiazol-3-yl}benzyl)piperidin-4-yl]methanesulfonamide]"
4,945 nM,"Fc1ccccc1-n1nnc(-c2nc(-c3ccoc3)no2)c1-c1ccncc1 [Example 88, 4-{1-(2-fluorophenyl)-4-[3-(3-furyl)-1,2,4-oxadiazol-5-yl]-1H-1,2,3-triazol-5-yl}pyridine]"
5,443 nM,"COCc1c(-c2nc(-c3ccccc3OC)no2)nnn1-c1ccccc1F [Example 50, 5-[1-(2-fluorophenyl)-5-(methoxymethyl)-1H-1,2,3-triazol-4-yl]-3-(2-methoxyphenyl)-1,2,4-oxadiazole]"
6,1130 nM,"Cc1c(-c2nc(-c3cc(F)ccc3F)no2)nnn1-c1ccccc1F [Example 2, 3-[2,5-Difluorophenyl)-5-[1-(2-fluorophenyl)-5-methyl-1H-1,2,3-triazole-4-yl]-1,2,4-oxadiazole]"
7,27 nM,"Fc1ccccc1-n1nnc(-c2nc(-c3ccc(CNC4CC4)cc3)no2)c1-c1ccncc1 [Example 164, N-(4-{5-[1-2-fluorophenyl)-5-pyridin-4-yl-1H-1,2,3-triazol-4-yl]-1,2,4-oxadiazol-3-yl}benzyl)cyclopropanamine formate]"
8,15 nM,"Fc1ccccc1-n1nnc(-c2nc(-c3ccc(CN4CC[C@H](F)C4)cc3)no2)c1-c1ccncc1 [Example 167, 4-{1-(2-fluorophenyl)-4-[3-(4-{[(3S)-3-fluoropyrrolidin-1-yl]methyl}phenyl)-1,2,4-oxadiazol-5-yl]-1H-1,2,3-triazol-5-yl}pyridine]"
9,218 nM,"COCCN(C)Cc1ccc(-c2noc(-c3nnn(-c4ccccc4F)c3-c3ccncc3)n2)cc1 [Example 166, N-(4-(5-(1-(2-fluorophenyl)-5-(pyridin-4-yl)-1H-1,2,3-triazol-4-yl)-1,2,4-oxadiazol-3-yl)benzyl)-2-methoxy-N-methylethanamine]"

# — patent US8202856B2 (Merck Serono SA, priority 2007, dated 2012)
